Test results as given in patent US12612386B2, “Heteroaryl-triazole compounds as pesticides” (Bayer Aktiengesellschaft, priority 2020, dated 2026).

Assays:
Assay type in all cases: in vivo
[1] = system: fall armyworm larvae (Spodoptera frugiperda); experiment: whole plant or invertebrate; conditions: 168 h
Protocol: Spodoptera frugiperda—Spray Test
• Solvent: 78.0 parts by weight acetone • 1.5 parts by weight dimethylformamide • Emulsifier: alkylarylpolyglycol ether
(§1) To produce a suitable preparation of active compound, 1 part by weight of active compound is mixed with the stated amount of solvents and is diluted with water, containing an emulsifier concentration of 1000 ppm, to the desired concentration. Further test concentrations are prepared by dilution with emulsifier containing water.
Maize (Zea mays) leaf sections are sprayed with a preparation of the active ingredient of the desired concentration. Once dry, the leaf sections are infested with fall armyworm larvae (Spodoptera frugiperda).
After 7 days mortality in % is determined. 100% means all caterpillars have been killed and 0% means none of the caterpillars have been killed.
Spodoptera frugiperda—Spray Test (SPODFR)
After the specified period of time, mortality in % is determined. 100% means all caterpillars have been killed and 0% means none of the caterpillars have been killed.

[2] = system: larvae of the banded cucumber beetle (Diabrotica balteata); experiment: Diabrotica balteata spray test; conditions: 168 h, 100 g/ha (=32 μg/well), after 7 days, read-out: efficacy (seedling growth)
Protocol: Diabrotica balteata—Spray Test
(§2) • Solvent: 78.0 parts by weight of acetone • 1.5 parts by weight of dimethylformamide • Emulsifier: alkylarylpolyglycol ether
as §1, with “solvent,” for “solvents”, “and the concentrate” for “and”
Soaked wheat seeds (Triticum aestivum) are placed in a multiple well plate filled with agar and some water and are incubated for 1 day to germinate (5 seeds per well). The germinated wheat seeds are sprayed with a test solution containing the desired concentration of the active ingredient. Afterwards each unit is infected with 10-20 larvae of the banded cucumber beetle (Diabrotica balteata).
After 7 days efficacy in % is determined. 100% means all the seedlings have grown up like in the untreated, uninfected control; 0% means none of the seedlings have grown.

[3] = system: larvae of the southern green stink bug (Nezara viridula); experiment: whole plant or invertebrate; conditions: 96 h
Protocol: Nezara viridula—Spray Test
as §2
as §1, with “solvent,” for “solvents”, “and the concentrate” for “and”
Barley plants (Hordeum vulgare) are sprayed with a test solution containing the desired concentration of the active ingredient and are infested with larvae of the southern green stink bug (Nezara viridula).
After 4 days mortality in % is determined. 100% means all the stink bugs have been killed; 0% means none of the stink bugs have been killed.

C[C@H](NC(=O)c1cc(C(F)(F)F)cc(C(F)(F)F)c1)c1nc(C2CC2)nn1-c1cc(C(N)=O)ncn1 [I-105]
mortality at 100 g/ha [1]: 100% | pest or weed control at 32 µg/disc, 100 g/ha [2]: 100%

C[C@H](NC(=O)c1cc(Br)cc(OC(F)F)c1)c1nc(C2CC2)nn1-c1cc(C#N)ncn1 [I-16]
pest or weed control at 32 µg/disc, 100 g/ha [2]: 100%

CC(C)N(C)C(=O)c1cc(-n2ncnc2[C@H](C)NC(=O)c2cc(Br)cc(OC(F)(F)C(F)F)c2)ncn1 [I-123]
mortality at 100 g/ha [1]: 100%

Cc1nc([C@H](C)NC(=O)c2cc(Cl)cc(S(=O)(=O)C(F)F)c2)n(-c2cc(C#N)ncn2)n1 [I-27]
mortality at 100 g/ha [1]: 100% | pest or weed control at 32 µg/disc, 100 g/ha [2]: 100%

C[C@H](NC(=O)c1cc(OC(F)(F)F)cc(S(=O)(=O)C(F)(F)F)c1)c1nc(C2CC2)nn1-c1cc(C(=O)N(C)C)ncn1 [I-157]
mortality at 100 g/ha [1]: 100% | pest or weed control at 32 µg/disc, 100 g/ha [2]: 100%

Cc1nc([C@H](C)NC(=O)c2cc(OC(F)(F)F)cc(OC(F)(F)F)c2)n(-c2cc(C(N)=O)ncn2)n1 [I-117]
mortality at 100 g/ha [1]: 100% | pest or weed control at 32 µg/disc, 100 g/ha [2]: 100% | mortality at 500 g/ha [3]: 100%

C[C@H](NC(=O)c1cc(Br)cc(Br)c1)c1nc(C2CC2)nn1-c1cc(C(N)=O)ncn1 [I-145]
mortality at 100 g/ha [1]: 100% | pest or weed control at 32 µg/disc, 100 g/ha [2]: 100%

C[C@H](NC(=O)c1cc(OC(F)F)cc(C2CC2)c1)c1nc(C2CC2)nn1-c1cc(C(N)=O)ncn1 [I-153]
mortality at 100 g/ha [1]: 100% | pest or weed control at 32 µg/disc, 100 g/ha [2]: 100%

Cc1nc([C@H](C)NC(=O)c2cc(Br)cc(C#N)c2)n(-c2cc(C(N)=O)ncn2)n1 [I-127]
mortality at 100 g/ha [1]: 100% | pest or weed control at 32 µg/disc, 100 g/ha [2]: 100% | mortality at 100 g/ha [3]: 90% | mortality at 500 g/ha [3]: 100%

Cc1nc([C@H](C)NC(=O)c2cc(OC(F)(F)F)cc(S(C)(=O)=O)c2)n(-c2cc(C#N)ncn2)n1 [I-30]
mortality at 100 g/ha [1]: 100% | pest or weed control at 32 µg/disc, 100 g/ha [2]: 100% | mortality at 500 g/ha [3]: 100%

C[C@H](NC(=O)c1cc(Cl)cc(OC(F)(F)F)c1)c1nc(C2CC2)nn1-c1cc(C(N)=O)ncn1 [I-106]
mortality at 100 g/ha [1]: 100% | pest or weed control at 32 µg/disc, 100 g/ha [2]: 100%

C[C@H](NC(=O)c1cc(Br)cc(OC(F)(F)F)c1)c1nc(C2CC2)nn1-c1cc(C(N)=O)ncn1 [I-13, 6-[5-[(1S)-1-[[3-bromo-5-(trifluoromethoxy)benzoyl]amino]ethyl]-3-cyclopropyl-1,2,4-triazol-1-yl]pyrimidine-4-carboxamide]
mortality at 100 g/ha [1]: 100% | pest or weed control at 32 µg/disc, 100 g/ha [2]: 100%

Cc1nc([C@H](C)NC(=O)c2cc(F)cc(C#N)c2)n(-c2cc(C(N)=O)ncn2)n1 [I-96]
mortality at 500 g/ha [3]: 100%

CC(NC(=O)c1cc(OC(F)(F)F)cc(S(=O)(=O)C2CC2)c1)c1ncnn1-c1cc(C#N)ncn1 (stereo not drawn) [I-9]
mortality at 100 g/ha [1]: 100%

C[C@H](NC(=O)c1cc(Cl)cc(OC(F)(F)C(F)(F)I)c1)c1ncnn1-c1cc(C(N)=O)ncn1 [I-114, 6-(5-{(1S)-1-[3-chloro-5-(1,1,2,2-tetrafluoro-2-iodoethoxy)benzamido]ethyl}-1H-1,2,4-triazol-1-yl)pyrimidine-4-carboxamide]
mortality at 100 g/ha [1]: 100% | pest or weed control at 32 µg/disc, 100 g/ha [2]: 100%

Cc1nc([C@H](C)NC(=O)c2cc(Cl)cc(S(=O)(=O)C(F)(F)F)c2)n(-c2cc(C#N)ncn2)n1 [I-24]
mortality at 100 g/ha [1]: 100% | pest or weed control at 32 µg/disc, 100 g/ha [2]: 100%

C[C@H](NC(=O)c1cc(OC(F)(F)F)cc(C2(C#N)CC2)c1)c1nc(C2CC2)nn1-c1cc(C#N)ncn1 [I-43]
mortality at 100 g/ha [1]: 100% | pest or weed control at 32 µg/disc, 100 g/ha [2]: 80%

C[C@H](NC(=O)c1cc(S(=O)(=O)C(F)(F)F)cc(S(=O)(=O)C(F)(F)F)c1)c1nc(C2CC2)nn1-c1cc(C(N)=O)ncn1 [I-107]
mortality at 100 g/ha [1]: 100% | pest or weed control at 32 µg/disc, 100 g/ha [2]: 100%

CC(C)N(C)C(=O)c1cc(-n2ncnc2[C@H](C)NC(=O)c2cccc(OC(F)(F)F)c2)ncn1 [I-111]
mortality at 100 g/ha [1]: 100%

Cc1nc([C@H](C)NC(=O)c2cc(Br)cc(OC(F)F)c2)n(-c2cc(C#N)ncn2)n1 [I-26]
mortality at 100 g/ha [1]: 100% | pest or weed control at 32 µg/disc, 100 g/ha [2]: 100%

C[C@H](NC(=O)c1cc(OC(F)(F)F)cc(OC(F)(F)F)c1)c1nc(C2CC2)nn1-c1cc(C(=O)N(C)C)ncn1 [I-165]
mortality at 100 g/ha [1]: 100% | pest or weed control at 32 µg/disc, 100 g/ha [2]: 100%

C[C@H](NC(=O)c1cc(Br)cc(Br)c1)c1nc(C2CC2)nn1-c1cc(C(=O)N(C)C)ncn1 [I-158]
mortality at 100 g/ha [1]: 100% | pest or weed control at 32 µg/disc, 100 g/ha [2]: 100%

C[C@H](NC(=O)c1cc(C#N)cc(OC(F)(F)F)c1)c1nc(C2CC2)nn1-c1cc(C#N)ncn1 [I-53]
pest or weed control at 32 µg/disc, 100 g/ha [2]: 100%

C[C@H](NC(=O)c1cc(Br)cc(OC(F)F)c1)c1nc(C2CC2)nn1-c1cc(C(N)=O)ncn1 [I-104]
mortality at 100 g/ha [1]: 100% | pest or weed control at 32 µg/disc, 100 g/ha [2]: 100%

C[C@H](NC(=O)c1cc(C(F)F)cc(C(F)F)c1)c1nc(C2CC2)nn1-c1cc(C(N)=O)ncn1 [I-147]
mortality at 100 g/ha [1]: 100% | mortality at 500 g/ha [3]: 100%

C[C@H](NC(=O)c1cc(C(F)(F)F)cc(S(C)(=O)=O)c1)c1nc(C2CC2)nn1-c1cc(C(N)=O)ncn1 [I-108]
mortality at 100 g/ha [1]: 100%

C[C@H](NC(=O)c1cc(OC(F)(F)F)cc(C2CC2)c1)c1nc(C2CC2)nn1-c1cc(C#N)ncn1 [I-17]
pest or weed control at 32 µg/disc, 100 g/ha [2]: 100%

C[C@H](NC(=O)c1cc(Br)cc(S(=O)(=O)C(F)(F)F)c1)c1ncnn1-c1cc(C(N)=O)ncn1 [I-138]
mortality at 100 g/ha [1]: 100% | pest or weed control at 32 µg/disc, 100 g/ha [2]: 80% | mortality at 500 g/ha [3]: 100%

C[C@H](NC(=O)c1cc(Br)cc(OC(F)(F)F)c1)c1nc(C2CC2)nn1-c1cc(C#N)ncn1 [I-15, 3-bromo-N-[(1S)-1-[2-(6-cyanopyrimidin-4-yl)-5-cyclopropyl-1,2,4-triazol-3-yl]ethyl]-5-(trifluoromethoxy)benzamide]
mortality at 100 g/ha [1]: 100% | pest or weed control at 32 µg/disc, 100 g/ha [2]: 100%

C[C@H](NC(=O)c1cc(Cl)cc(S(=O)(=O)C(F)(F)F)c1)c1nc(C2CC2)nn1-c1cc(C(N)=O)ncn1 [I-109]
mortality at 100 g/ha [1]: 100% | pest or weed control at 32 µg/disc, 100 g/ha [2]: 100%

Cc1nc([C@H](C)NC(=O)c2cc(OC(F)F)cc(OC(F)F)c2)n(-c2cc(C(=O)N(C)C(C)C)ncn2)n1 [I-100]
mortality at 100 g/ha [1]: 83%

C[C@H](NC(=O)c1cc(Cl)cc(S(=O)(=O)C(F)F)c1)c1ncnn1-c1cc(C#N)ncn1 [I-119]
mortality at 100 g/ha [1]: 100% | pest or weed control at 32 µg/disc, 100 g/ha [2]: 100% | mortality at 500 g/ha [3]: 100%

C[C@H](NC(=O)c1cc(Br)nc(Br)c1)c1ncnn1-c1cc(C(N)=O)ncn1 [I-148]
mortality at 100 g/ha [1]: 100% | pest or weed control at 32 µg/disc, 100 g/ha [2]: 100% | mortality at 500 g/ha [3]: 100%

C[C@H](NC(=O)c1cc(Br)cc(C2CC2(Cl)Cl)c1)c1ncnn1-c1cc(C#N)ncn1 (stereo partly drawn) [I-54]
mortality at 100 g/ha [1]: 100% | pest or weed control at 32 µg/disc, 100 g/ha [2]: 100%

C[C@H](NC(=O)c1cc(OC(F)(F)F)cc(S(=O)(=O)C(F)F)c1)c1nc(C2CC2)nn1-c1cc(C(N)=O)ncn1 [I-144]
mortality at 100 g/ha [1]: 100%

CSc1cc(OC(F)F)cc(C(=O)N[C@@H](C)c2nc(C3CC3)nn2-c2cc(C(N)=O)ncn2)c1 [I-137]
mortality at 100 g/ha [1]: 100%

CNC(=O)c1cc(-n2nc(C)nc2[C@H](C)NC(=O)c2cc(Cl)cc(S(C)(=O)=O)c2)ncn1 [I-62]
mortality at 100 g/ha [1]: 83% | mortality at 500 g/ha [3]: 100%

C[C@H](NC(=O)c1cc(OC(F)(F)F)cc(S(C)(=O)=O)c1)c1nc(C2CC2)nn1-c1cc(C#N)ncn1 [I-14]
pest or weed control at 32 µg/disc, 100 g/ha [2]: 100%

Cc1nc([C@H](C)NC(=O)c2cc(Cl)cc(C#N)c2)n(-c2cc(C(N)=O)ncn2)n1 [I-131]
pest or weed control at 32 µg/disc, 100 g/ha [2]: 100% | mortality at 500 g/ha [3]: 100%

CNC(=O)c1cc(-n2nc(C3CC3)nc2[C@H](C)NC(=O)c2cc(OC(F)(F)F)cc(S(C)(=O)=O)c2)ncn1 [I-155]
mortality at 100 g/ha [1]: 100% | mortality at 500 g/ha [3]: 100%

C[C@H](NC(=O)c1cc(Cl)cc(S(=O)(=O)C(F)F)c1)c1nc(C2CC2)nn1-c1cc(C(N)=O)ncn1 [I-151]
mortality at 100 g/ha [1]: 83%

C[C@H](NC(=O)c1cc(OC(F)(F)F)cc(S(=O)(=O)C(F)(F)F)c1)c1ncnn1-c1cc(C#N)ncn1 [I-91]
mortality at 100 g/ha [1]: 100% | pest or weed control at 32 µg/disc, 100 g/ha [2]: 100%

C[C@H](NC(=O)c1cc(Cl)cc(S(=O)(=O)c2ccc(Cl)cc2)c1)c1ncnn1-c1cc(C#N)ncn1 [I-11]
mortality at 100 g/ha [1]: 100% | pest or weed control at 32 µg/disc, 100 g/ha [2]: 80%

C[C@H](NC(=O)c1cc(OC(F)(F)F)cc(C2CC2)c1)c1nc(C2CC2)nn1-c1cc(C(N)=O)ncn1 [I-146]
mortality at 100 g/ha [1]: 100% | pest or weed control at 32 µg/disc, 100 g/ha [2]: 100%

C[C@H](NC(=O)c1cc(OC(F)(F)F)cc(S(C)(=O)=O)c1)c1nc(C2CC2)nn1-c1cc(C(N)=O)ncn1 [I-47]
mortality at 100 g/ha [1]: 100% | pest or weed control at 32 µg/disc, 100 g/ha [2]: 100%
